Assay results as given in patent publication US8697641B2, “4-amino-4-oxobutanoyl peptide cyclic analogues, inhibitors of viral replication” (Achillion Pharmaceuticals, Inc., priority 2008, dated 2014).

What follows are compounds tested on Hepatitis C replicon (assay: HCV replicon assay (NPT ELISA readout) in Huh-7 replicon-containing cells). Conditions: Hepatitis C virus, 72 h; HCV replicon in Huh-7 cells, three days incubation.
Format: cell-based, Hepatitis C virus
Experimental: Compounds claimed herein are tested for the ability to inhibit viral replication of the Hepatitis C replicon in cultured cells in which the HCV replicon construct has been incorporated. The HCV replicon system was described by Bartenschlager, et. al (Science, 285, pp. 110-113 (1999)). The replicon system is predictive of in vivo anti-HCV activity; compounds that are active in humans uniformly evidence activity in the replicon assay.
In this assay HCV replicon containing cells are treated with different concentrations of the test compound to ascertain the ability of the test compound to suppress replication of the HCV replicon. As a positive control, HCV replicon-containing cells are treated with different concentrations of interferon alpha, a known inhibitor of HCV replication. The replicon assay system includes Neomycin Phosphotransferase (NPT) as a component of the replicon itself in order to detect the transcription of replicon gene products in the host cell. Cells in which the HCV replicon is actively replicating have high levels of NPT; the level of NPT is proportional to HCV replication. […] The NPT level of each sample is measured using a captured ELISA.
A protocol for testing compounds for the ability to inhibit viral replication of the Hepatitis C replicon cultured cells in which the replicon construct has been incorporated, follows.
The HCV replicon contains, 5′-3′, the HCV-IRES, the neomycin phosphotransferase (neo) gene, the IRES of encephalomyocarditis virus, which directs translation of HCV sequences NS3 to NS5B, and the 3′-NTR. The sequence of the HCV replicon has been deposited in GenBank (Accession no. AJ242652).
The replicon is transfected into Huh-7 cells using standard methods such as electroporation.
The equipment and materials include, but are not limited to, Huh-7 HCV replicon-containing cells, maintenance media (DMEM (Dulbecco's modified Eagle media) supplemented with 10% FBS, L-glutamine, non-essential amino acids, penicillin (100 units/ml), streptomycin (100 micrograms/ml), and 500 micrograms/ml of Geneticin (G418), screening media (DMEM supplemented with 10% FBS, L-glutamine, non-essential amino acids, penicillin (100 units/ml) and streptomycin (100 micrograms/ml)), 96 well tissue culture plates (flat bottom), 96 well plates (U bottom for drug dilution), Interferon alpha for positive control, fixation reagent (such as methanol:acetone), primary antibody (rabbit anti-NPTII), secondary antibody: Eu-N1 l, and enhancement solution.
The cells are then seeded onto 96-well plates at a density of 6000-7500 cells/100 microliters/well (6-7.5×10^5 cells/10 ml/plate). The plates are then incubated at 37° C. in a 5% CO2 incubator.
HCV replicon-containing cells are rinsed with once PBS once; 2 mls of trypsin are then added. Cells are incubated at 37° C. in a 5% CO2 incubator for 3-5 minutes. 10 mls of complete medium is added to stop the reaction. Cells are blown gently, put into a 15 ml tube, and spun at 1200 rpm for four minutes. The trypsin/medium solution is removed and 5 mls of medium (500 ml DMEM (high glucose)) from BRL catalog #12430-054; 50 mls 10% FBS, 5% Geneticin G418 (50 mg/ml, BRL catalog #10131-035), 5 ml MEM non-essential amino acids (100×BRL #11140-050) and 5 ml pen-strep (BRL #15140-148) is added. The cells and media are mixed carefully
Cells are plated with screening medium (500 ml DMEM (BRL #21063-029), 50 ml FBS (BRL #10082-147) and 5 ml MEM non-essential amino acid (BRL #11140-050) at 6000-7500 fcells/100 μl/well of 96 well plate (6-7.5×10^5 cells/10 ml/plate). Plates are placed into 37° C. 5% CO2 incubator overnight.
The following morning, drugs (test compounds or interferon alpha) are diluted in 96 well U bottom plates with media or DMSO/media, depending on the final concentration chosen for screening. Generally for 6 concentrations of each test compounds ranging from 10 micromolar to 0.03 micromolar are applied. […]

Q: How did the EC50 turn out when `COc1ccc2c(O[C@@H]3C[C@H]4C(=O)N[C@]5(C(=O)NS(=O)(=O)C6CC6)C[C@H]5/C=C\CCCCC[C@H](CC(=O)N5CCCCC5)C(=O)N4C3)nccc2c1Cl` [Compound 122, (2R,6R,13aS,16aS, Z)-2-(5-chloro-6-methoxylsoquinolin-1-yloxy)-N-(cyclopropylsulfonyl)-5, 16-dioxo-6-(2-oxo-2-(piperidin-1-yl)ethyl)-1,2,3,5,6,7,8,9,10,11, 13a,14,14a,15,16,16a-hexadecahydrocyclopropa [e]pyrrolo[1,2-a][1,4] diazacyclopentadecine-14a-carboxamide] was run?
A: < 1000 nM

Q: How did the EC50 turn out when `O=C1N[C@]2(C(=O)NS(=O)(=O)C3CC3)C[C@H]2/C=C\CCCCC[C@H](CC(=O)N2CCCC(F)(F)C2)C(=O)N2C[C@H](Oc3cc(-c4ccccn4)nc4c5c(ccc34)CCC5)C[C@@H]12` [Compound 127, (2R,6R,13aS,16aS,Z)-N-(cyclopropylsulfonyl)-6-(2-(3,3-difluoropiperidin-1-yl)-2-oxoethyl)-5,16-dioxo-2-(2-(pyridin-2-yl)-8,9-dihydro-7H-cyclopenta[h]quinolin-4-yloxy)-1,2,3,5,6,7,8,9,10,11, 13a,14,14a,15,16,16a-hexadecahydrocyclopropa [e]pyrrolo[1,2-a][1,4] diazacyclopentadecine-14a-carboxamide] was run?
A: > 10000 nM

Q: Which EC50 does the source give for `COc1ccc2c(O[C@@H]3C[C@H]4C(=O)N[C@H](C(=O)NS(=O)(=O)C5CC5)[C@@H](C)CCCCCCC[C@H](CC(=O)N5CCCCC5)C(=O)N4C3)cc(-c3ccccc3)nc2c1` [Compound 53, (3S,4S,12R,16R,17aS)-N-(cyclopropylsulfonyl)-16-(7-methoxy-2-phenylquinolin-4-yloxy)-4-methyl-1,13-dioxo-12-(2-oxo-2-(piperidin-1-yl)ethyl)hexadecahydro-1H-pyrrolo[1,2-a][1,4] diazacyclopentadecine-3-carboxamide] here?
A: 1000 to 10000 nM

Q: Which EC50 does the source give for `COc1ccc2c(O[C@@H]3C[C@H]4C(=O)N[C@]5(C(=O)NS(=O)(=O)C6CC6)C[C@H]5/C=C\CCCCC[C@H](CC(=O)N5CCCCC5)C(=O)N4C3)cc(-c3ccccc3)nc2c1` [Compound 48, (2R,6R,13aS, 14aR,16aS,Z)-N-(cyclopropylsulfonyl)-2-(7-methoxy-2-phenylquinolin-4-yloxy)-5,16-dioxo-6-(2-oxo-2-(piperidin-1-yl)ethyl)-1,2,3,5,6,7,8,9,10,11, 13a,14,14a,15,16,16a-hexadecahydrocyclopropa [e]pyrrolo[1,2-a][1,4] diazacyclopentadecine-14a-carboxamide] here?
A: 1000 to 10000 nM

Q: `COc1ccc2c(O[C@@H]3C[C@H]4C(=O)N[C@]5(C(=O)O)C[C@H]5/C=C\CCCCC[C@H](CC(=O)N5CCCCC5)C(=O)N4C3)cc(-c3ccccc3)nc2c1` [Compound 44, (2R,6R,13aS,14aR, 16aS,Z)-2-(7-methoxy-2-phenylquinolin-4-yloxy)-5,16-dioxo-6-(2-oxo-2-(piperidin-1-yl)ethyl)-1,2,3,5,6,7,8,9,10,11, 13a,14,14a,15,16,16a-hexadecahydrocyclopropa [e]pyrrolo[1,2-a][1,4] diazacyclopentadecine-14a-carboxylic acid] was tested. Which EC50 did it give?
A: > 10000 nM

Q: How did the EC50 turn out when `COc1ccc2c(O[C@@H]3C[C@H]4C(=O)N[C@@](C)(C(=O)NS(=O)(=O)C5CC5)CCCCCCCC[C@H](CC(=O)N5CCCCC5)C(=O)N4C3)cc(-c3ccccc3)nc2c1` [Compound 54, (3R,12R,16R,17aS)-N-(cyclopropylsulfonyl)-16-(7-methoxy-2-phenylquinolin-4-yloxy)-3-methyl-1,13-dioxo-12-(2-oxo-2-(piperidin-1-yl)ethyl)hexadecahydro-1H-pyrrolo[1,2-a][1,4] diazacyclopentadecine-3-carboxamide] was run?
A: < 1000 nM

Q: With `COc1ccc2c(O[C@@H]3C[C@H]4C(=O)N[C@@]5(C(=O)NS(=O)(=O)C6CC6)C[C@@H]5/C=C\CCCCC[C@H](CC(=O)N5CCCCC5)C(=O)N4C3)cc(-c3ccccc3)nc2c1` [Compound 49, (2R,6R,13aR, 14aS,16aS,Z)-N-(cyclopropylsulfonyl)-2-(7-methoxy-2-phenylquinolin-4-yloxy)-5,16-dioxo-6-(2-oxo-2-(piperidin-1-yl)ethyl)-1,2,3,5,6,7,8,9,10,11, 13a,14,14a,15,16,16a-hexadecahydrocyclopropa [e]pyrrolo[1,2-a][1,4] diazacyclopentadecine-14a-carboxamide] as the compound, how does the EC50 read?
A: 1000 to 10000 nM

Q: `O=C(N[C@@H]1C[C@H]2C(=O)N[C@]3(C(=O)NS(=O)(=O)C4CC4)C[C@H]3/C=C\CCCCC[C@H](CC(=O)N3CCCCC3)C(=O)N2C1)c1cc(-c2ccccc2)nc2ccccc12` [Compound 81, (2R,6R,14aR,16aS,Z)-N-(cyclopropylsulfonyl)-5,16-dioxo-6-(2-oxo-2-(piperidin-1-yl)ethyl)-2-(2-phenylquinoline-4-carboxamido)-1,2,3,5,6,7,8,9,10,11, 13a,14,14a,15,16,16a-hexadecahydrocyclopropa [e]pyrrolo[1,2-a][1,4] diazacyclopentadecine-14a-carboxamide] was tested. Which EC50 did it give?
A: < 1000 nM

Q: For `COc1ccc2c(O[C@@H]3C[C@H]4C(=O)N[C@]5(C(=O)NS(=O)(=O)C6CC6)CC5/C=C\CCCCC[C@H](CC(=O)N5CCC(C(F)(F)F)CC5)C(=O)N4C3)cc(-c3cccnc3)nc2c1C` (stereo partly drawn) [Compound 131, (2R,6R,14aR,16aS,Z)-N-(cyclopropylsulfonyl)-2-(7-methoxy-8-methyl-2-(pyridin-3-yl)quinolin-4-yloxy)-5,16-dioxo-6-(2-oxo-2-(4-(trifluoromethyl)piperidin-1-yl)ethyl)-1,2,3,5,6,7,8,9,10,11, 13a,14,14a,15,16,16a-hexadecahydrocyclopropa [e]pyrrolo[1,2-a][1,4] diazacyclopentadecine-14a-carboxamide], which EC50 is on record?
A: < 1000 nM

Q: With `COc1ccc2c(O[C@@H]3C[C@H]4C(=O)N[C@]5(C(=O)NS(=O)(=O)C6CC6)CC5/C=C\CCCCC[C@H](CC(=O)N5CC[C@@H](CNC(=O)OC(C)(C)C)C5)C(=O)N4C3)cc(-c3ccccc3)nc2c1` (stereo partly drawn) [Compound 103, tert-butyl ((3S)-1-(2-((2R,6R,14aR,16aS,Z)-14a-(cyclopropylsulfonyl-carbamoyl)-2-(7-methoxy-2-phenylquinolin-4-yloxy)-5,16-dioxo-1,2,3,5,6,7,8,9,10,11, 13a,14,14a,15,16,16a-hexadecahydrocyclopropa [e]pyrrolo[1,2-a][1,4]diazacyclopentadecin-6-yl)acetyl)pyrrolidin-3-yl)methylcarbamate] as the compound, how does the EC50 read?
A: < 1000 nM

Q: For `COc1ccc2c(O[C@@H]3C[C@H]4C(=O)N[C@]5(C(=O)NS(=O)(=O)C6CC6)C[C@H]5/C=C\CCCCC[C@H](CC(=O)N5CCCCC5)C(=O)N4C3)cc(-c3nc(C(C)C)cs3)nc2c1` [Compound 118, (2R,6R,14aR,16aS,Z)-N-(cyclopropylsulfonyl)-2-(2-(4-isopropylthiazol-2-yl)-7-methoxyquinolin-4-yloxy)-5,16-dioxo-6-(2-oxo-2-(piperidin-1-yl)ethyl)-1,2,3,5,6,7,8,9,10,11, 13a,14,14a,15,16,16a-hexadecahydrocyclopropa [e]pyrrolo[1,2-a][1,4] diazacyclopentadecine-14a-carboxamide], which EC50 is on record?
A: < 1000 nM

Q: Which EC50 does the source give for `COc1ccc2c(O[C@@H]3C[C@H]4C(=O)N[C@]5(C(=O)NS(=O)(=O)C6CC6)C[C@H]5/C=C\CCCCC[C@H](CC(=O)N5CCCCC5)C(=O)N4C3)cc(-c3ccccn3)nc2c1C` [Compound 116, (2R,6R,14aR,16aS,Z)-N-(cyclopropylsulfonyl)-2-(7-methoxy-8-methyl-2-(pyridin-2-yl)quinolin-4-yloxy)-5, 16-dioxo-6-(2-oxo-2-(piperidin-1-yl)ethyl)-1,2,3,5,6,7,8,9,10,11, 13a,14,14a,15,16,16a-hexadecahydrocyclopropa [e]pyrrolo[1,2-a][1,4] diazacyclopentadecine-14a-carboxamide] here?
A: < 1000 nM
